Data set [1] can be described thus: UV absorption spectrum in acetonitrile. In kind it is physicochemical. Particulars: for Maximum absorption wavelength: absorption in a range of 300 nm to 400 nm; for ε at maximum absorption wavelength (molar extinction coefficient): second line of the cell. The protocol: (§1) Compound Nos. 4, 5, 7, 10, 20, 6, 35, 38 and 40 and Comparative Compound 1 represented by the Formula below were each dissolved in acetonitrile, and their absorption spectra were measured using a […] U-3010 to determine the values of ?max and (molar extinction coefficient) for absorption in a range of 300 nm to 400 nm as well as the value of ε at 365 nm. […] As for the solubility, the concentration of each compound was increased by 1%-by-mass increments and the concentration at which no compound was left undissolved was determined and, in the results shown in Table 4, the solubility is indicated in terms of this concentration.

Data set [2] is described as follows: Solubility to propylene glycol monomethyl ether acetate at 25° C. Format: physicochemical. As to conditions: for Solubility: concentration at which no compound was left undissolved; for solubility, ranking among compounds grouped by sulfonate moiety: among Compound Nos. 4, 5, 7 and 10, among Compound Nos. 6, 38 and 40. The protocol:
as §1

Data set [3] is described as follows: Weight loss starting point (thermal analysis). In kind it is physicochemical.
[4] abbreviates: propylene glycol monomethyl ether acetate, 25° C.

`CCCCc1ccc2c3c(cccc13)C(=O)N(OS(=O)(=O)c1c(C(C)C)cc(C(C)C)cc1C(C)C)C2=O` [Compound No. 7] registered a melting point of 131 °C. Further, in data set [1], the “ε at 365 nm” value was 1.06 × 10^4, the Maximum absorption wavelength is 344 nm and the “ε at maximum absorption wavelength (molar extinction coefficient)” value (from here on “ε at maximum absorption wavelength”) is given as 1.65 × 10^4. This compound displayed a Solubility in data set [2] (setting [4]) of 5 % by mass. The “Weight loss starting point” value in data set [3] worked out at 267 °C.

With `CCCCc1ccc2c3c(cccc13)C(=O)N(OS(=O)(=O)c1ccc(C(F)(F)F)cc1)C2=O` [Compound No. 35], the melting point was determined as 192 °C. Moreover, in data set [1], the “ε at 365 nm” value was 1.11 × 10^4, the Maximum absorption wavelength is given as 345.0 nm and the “ε at maximum absorption wavelength” value is 1.68 × 10^4. In data set [2] (setting [4]), this compound returned a Solubility of 2.0 % by mass. Also, the “Weight loss starting point” value in data set [3] turned out to be 302 °C.

In turn, `CCc1ccc2c3c(cccc13)C(=O)N(OS(=O)(=O)C(F)(F)F)C2=O` [Compound No. 20] yielded a melting point of 145 °C. Further, in data set [1], the “ε at 365 nm” value is given as 9.95 × 10^3, the Maximum absorption wavelength is recorded as 344 nm and the “ε at maximum absorption wavelength” value is listed as 1.64 × 10^4. In data set [2] (setting [4]), this compound showed a Solubility of 5 % by mass. Besides, the “Weight loss starting point” value in data set [3] is 253 °C.

For `CCCCc1ccc2c3c(cccc13)C(=O)N(OS(=O)(=O)c1ccc(C)cc1)C2=O` [Compound No. 6], the melting point was determined as 145.1 °C. Besides, in data set [1], the “ε at 365 nm” value was 1.02 × 10^4, the Maximum absorption wavelength came out at 343.5 nm and the “ε at maximum absorption wavelength” value was 1.67 × 10^4. In addition, the “solubility, ranking among compounds grouped by sulfonate moiety” value in data set [2] is reported as “highest solubility”. The same compound returned a Solubility in data set [2] (setting [4]) of 2.3 % by mass. Besides, the “Weight loss starting point” value in data set [3] was found to be 314.8 °C.

As for `CCCCc1ccc2c3c(cccc13)C(=O)N(OS(=O)(=O)CC13CCC(CC1=O)C3(C)C)C2=O` (centres unmarked) [Compound No. 10], the melting point stood at 134 °C. Moreover, in data set [1], the “ε at 365 nm” value is reported as 1.17 × 10^4, the Maximum absorption wavelength amounted to 346 nm and the “ε at maximum absorption wavelength” value is given as 1.68 × 10^4. Besides, in data set [2] (setting [4]), the Solubility turned out to be 5 % by mass. Further, the “Weight loss starting point” value in data set [3] was 279 °C.

`CCCCCCCCCCCCCCc1ccc2c3c(cccc13)C(=O)N(OS(=O)(=O)c1ccc(C)cc1)C2=O` [Compound No. 40] returned a melting point of 95.5 °C. In data set [1], the “ε at 365 nm” value is 1.05 × 10^4, the Maximum absorption wavelength turned out to be 344.5 nm and the “ε at maximum absorption wavelength” value is reported as 1.68 × 10^4. The compound further gave a Solubility in data set [2] (setting [4]) of 1.9 % by mass. For the same compound, in data set [3], the “Weight loss starting point” value is 301.8 °C.

For `CC1(C)C2CCC1(CS(=O)(=O)ON1C(=O)c3cccc4cccc(c34)C1=O)C(=O)C2` (centres unmarked) [Comparative Compound 1, reference compound], in data set [1], the “ε at 365 nm” value was 6.48 × 10^2, the Maximum absorption wavelength is listed as 335 nm and the “ε at maximum absorption wavelength” value is listed as 1.34 × 10^4. The Solubility in data set [2] (setting [4]) came to 2 % by mass.

For `CCCCc1ccc2c3c(cccc13)C(=O)N(OS(=O)(=O)C(F)(F)F)C2=O` [Compound No. 4], the melting point turned out to be 110 °C. In data set [1], the “ε at 365 nm” value is recorded as 1.16 × 10^4, the Maximum absorption wavelength stood at 346 nm and the “ε at maximum absorption wavelength” value is reported as 1.65 × 10^4. Moreover, the “solubility, ranking among compounds grouped by sulfonate moiety” value in data set [2] is “highest solubility”. In data set [2] (setting [4]), the “solubility (in words)” value is “high solubility”; the “solubility, comparison between Compound Nos. 4 and 20 (different Xs)” value was “higher solubility”; the Solubility is recorded as 20 % by mass. Also, the “Weight loss starting point” value in data set [3] amounted to 250 °C.

In the case of `CCCCC(CC)Cc1ccc2c3c(cccc13)C(=O)N(OS(=O)(=O)c1ccc(C)cc1)C2=O` (centres unmarked) [Compound No. 38], the melting point turned out to be 129.6 °C. In addition, in data set [1], the “ε at 365 nm” value is listed as 1.24 × 10^4, the Maximum absorption wavelength worked out at 345 nm and the “ε at maximum absorption wavelength” value was 1.76 × 10^4. The Solubility in data set [2] (setting [4]) worked out at 1.6 % by mass. Moreover, the “Weight loss starting point” value in data set [3] turned out to be 304.9 °C.

By melting point is commonly meant the temperature, or range, at which the solid turns liquid.

The values are drawn from patent US20150315153A1, “NOVEL SULFONIC ACID DERIVATIVE COMPOUND, PHOTOACID GENERATOR, CATIONIC POLYMERIZATION INITIATOR, RESIST COMPOSITION, AND CATIONICALLY POLYMERIZABLE COMPOSITION” (ADEKA CORPORATION, priority 2012, published 2015).
